Experimental data published in patent US20180155336A1, “PROCESS FOR THE PREPARATION OF 2-{4-[2-({[2-(4-CHLOROPHENYL)-1,3-THIAZOL-4-YL]METHYL}SULFANYL)-3,5-DICYAN0-6-(PYRROLIDIN-1-YL)PYRIDIN-4-YL]PHENOXY}ETHYL-L-ALANYL-L-ALANINATE MONOHYDROCHLORIDE” (BAYER PHARMA AKTIENGESELLSCHAFT, priority 2015, published 2018).
Where a name gives a salt, the structure may show the parent alone.

Experiment: Storage stability of the crystalline form
Format: physicochemical
Text: The compound of the formula (I) is generally micronized and formulated in pharmacy.

- stability properties (even at high atmospheric humidity): very good stability properties
- can be stored without any problem (storage time): > 2 years
SMILES: C[C@H](N)C(=O)N[C@@H](C)C(=O)OCCOc1ccc(-c2c(C#N)c(SCc3csc(-c4ccc(Cl)cc4)n3)nc(N3CCCC3)c2C#N)cc1 [2-{4-[2-({[2-(4-chlorophenyl)-1,3-thiazol-4-yl]methyl}sulphanyl)-3,5-dicyano-6-(pyrrolidin-1-yl)pyridin-4-yl]phenoxy}ethyl-L-alanyl L-alaninate monohydrochloride]
